Data as given in ChEMBL document CHEMBL1201862, “PubChem BioAssay data set” (2004).
Activity calls are given as the source filed them.

Experiments:
[1] = target: T1, High affinity choline transporter 1 (Homo sapiens, UniProt Q9GZV3); test: human choline transporter blockers, potency – cell-based, 5-point CRC, membrane potential dye, dose response (AID 504840); type: functional
T1 sequence (Q9GZV3 whole entry): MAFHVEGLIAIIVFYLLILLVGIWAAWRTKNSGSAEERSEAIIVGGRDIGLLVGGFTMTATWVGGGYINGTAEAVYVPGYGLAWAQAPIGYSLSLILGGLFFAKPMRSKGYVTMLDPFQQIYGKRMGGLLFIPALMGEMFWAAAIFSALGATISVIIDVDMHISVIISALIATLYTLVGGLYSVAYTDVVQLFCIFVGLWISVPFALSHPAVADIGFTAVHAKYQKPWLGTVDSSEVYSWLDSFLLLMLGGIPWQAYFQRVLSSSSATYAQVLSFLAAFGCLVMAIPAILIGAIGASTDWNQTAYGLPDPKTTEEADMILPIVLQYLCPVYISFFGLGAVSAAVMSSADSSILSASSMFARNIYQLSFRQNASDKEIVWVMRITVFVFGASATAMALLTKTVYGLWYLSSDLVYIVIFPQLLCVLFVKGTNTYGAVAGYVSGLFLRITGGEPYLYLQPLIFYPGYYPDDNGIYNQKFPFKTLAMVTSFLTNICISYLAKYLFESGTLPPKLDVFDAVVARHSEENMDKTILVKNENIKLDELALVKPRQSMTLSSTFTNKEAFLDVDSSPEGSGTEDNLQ

[2] = target: T2, Microphthalmia-associated transcription factor (Homo sapiens, UniProt O75030); test: reducers of TRPM1 reporter luminescence, concentration series – cell-based, SK-MEL-5, cherry-picked, set 3, MITF inhibitor project, dose response (AID 493073); type: functional;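 further: SK-MEL-5 melanoma cells with luciferase driven by the MITF target TRPM1 promoter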
T2 sequence (O75030 whole entry): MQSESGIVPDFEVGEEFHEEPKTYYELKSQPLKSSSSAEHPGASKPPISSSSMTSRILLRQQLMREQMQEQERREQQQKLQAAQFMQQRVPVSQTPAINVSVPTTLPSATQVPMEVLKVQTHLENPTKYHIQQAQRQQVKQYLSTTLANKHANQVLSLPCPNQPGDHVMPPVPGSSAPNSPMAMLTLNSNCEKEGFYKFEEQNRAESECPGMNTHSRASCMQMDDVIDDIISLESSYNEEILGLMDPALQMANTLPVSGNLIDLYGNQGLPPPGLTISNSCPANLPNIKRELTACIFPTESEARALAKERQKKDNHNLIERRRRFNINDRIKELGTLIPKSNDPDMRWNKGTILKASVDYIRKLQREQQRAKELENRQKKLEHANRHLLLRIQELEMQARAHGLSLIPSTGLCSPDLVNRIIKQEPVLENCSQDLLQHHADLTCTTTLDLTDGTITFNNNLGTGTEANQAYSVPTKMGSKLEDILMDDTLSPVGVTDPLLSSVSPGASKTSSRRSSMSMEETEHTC

Aminopeptidase N = target: T3, Aminopeptidase N (Plasmodium falciparum FcB1/Columbia, UniProt O96935); test: malaria alanyl aminopeptidase activity blockers – biochemical, fluorogenic H-Leu-NHMec substrate, 1536-well (AID 1445); set-up: species or system Plasmodium falciparum 3D7, 3D7
T3 sequence (O96935 whole entry): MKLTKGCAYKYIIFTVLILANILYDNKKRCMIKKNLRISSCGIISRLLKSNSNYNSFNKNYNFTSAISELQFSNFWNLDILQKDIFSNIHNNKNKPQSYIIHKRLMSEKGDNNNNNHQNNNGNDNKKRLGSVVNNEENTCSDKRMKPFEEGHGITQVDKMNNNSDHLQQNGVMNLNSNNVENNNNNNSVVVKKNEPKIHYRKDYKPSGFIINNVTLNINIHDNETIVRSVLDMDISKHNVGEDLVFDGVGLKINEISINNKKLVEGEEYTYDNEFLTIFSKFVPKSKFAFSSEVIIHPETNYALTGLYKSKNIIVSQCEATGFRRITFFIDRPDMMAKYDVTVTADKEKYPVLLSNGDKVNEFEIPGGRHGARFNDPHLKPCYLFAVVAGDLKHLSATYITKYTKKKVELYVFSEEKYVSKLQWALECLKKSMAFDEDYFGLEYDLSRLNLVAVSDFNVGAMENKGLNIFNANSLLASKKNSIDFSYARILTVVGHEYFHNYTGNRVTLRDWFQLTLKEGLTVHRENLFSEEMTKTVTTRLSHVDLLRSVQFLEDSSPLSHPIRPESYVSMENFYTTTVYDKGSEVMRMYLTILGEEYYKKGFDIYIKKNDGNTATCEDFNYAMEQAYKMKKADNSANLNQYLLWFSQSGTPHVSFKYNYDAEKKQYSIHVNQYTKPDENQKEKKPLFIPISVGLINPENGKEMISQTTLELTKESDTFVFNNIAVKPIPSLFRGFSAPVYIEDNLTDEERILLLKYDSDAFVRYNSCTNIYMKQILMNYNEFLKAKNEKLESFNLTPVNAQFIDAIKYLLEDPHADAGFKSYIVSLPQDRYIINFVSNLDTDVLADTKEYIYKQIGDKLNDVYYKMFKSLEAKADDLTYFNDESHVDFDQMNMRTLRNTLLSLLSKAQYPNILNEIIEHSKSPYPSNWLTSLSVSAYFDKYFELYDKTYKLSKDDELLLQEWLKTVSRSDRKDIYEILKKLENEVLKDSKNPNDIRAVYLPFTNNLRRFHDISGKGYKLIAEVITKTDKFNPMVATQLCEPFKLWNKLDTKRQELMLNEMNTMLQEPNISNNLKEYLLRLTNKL

Genome polyprotein = Genome polyprotein (dengue virus type 2, UniProt P29990); test: flavivirus cap methylation enzyme inhibition – biochemical, confirmation dose response, primary screen (AID 588689); type: functional
Sequence of Genome polyprotein (P29990 2492-3391 limits assumed): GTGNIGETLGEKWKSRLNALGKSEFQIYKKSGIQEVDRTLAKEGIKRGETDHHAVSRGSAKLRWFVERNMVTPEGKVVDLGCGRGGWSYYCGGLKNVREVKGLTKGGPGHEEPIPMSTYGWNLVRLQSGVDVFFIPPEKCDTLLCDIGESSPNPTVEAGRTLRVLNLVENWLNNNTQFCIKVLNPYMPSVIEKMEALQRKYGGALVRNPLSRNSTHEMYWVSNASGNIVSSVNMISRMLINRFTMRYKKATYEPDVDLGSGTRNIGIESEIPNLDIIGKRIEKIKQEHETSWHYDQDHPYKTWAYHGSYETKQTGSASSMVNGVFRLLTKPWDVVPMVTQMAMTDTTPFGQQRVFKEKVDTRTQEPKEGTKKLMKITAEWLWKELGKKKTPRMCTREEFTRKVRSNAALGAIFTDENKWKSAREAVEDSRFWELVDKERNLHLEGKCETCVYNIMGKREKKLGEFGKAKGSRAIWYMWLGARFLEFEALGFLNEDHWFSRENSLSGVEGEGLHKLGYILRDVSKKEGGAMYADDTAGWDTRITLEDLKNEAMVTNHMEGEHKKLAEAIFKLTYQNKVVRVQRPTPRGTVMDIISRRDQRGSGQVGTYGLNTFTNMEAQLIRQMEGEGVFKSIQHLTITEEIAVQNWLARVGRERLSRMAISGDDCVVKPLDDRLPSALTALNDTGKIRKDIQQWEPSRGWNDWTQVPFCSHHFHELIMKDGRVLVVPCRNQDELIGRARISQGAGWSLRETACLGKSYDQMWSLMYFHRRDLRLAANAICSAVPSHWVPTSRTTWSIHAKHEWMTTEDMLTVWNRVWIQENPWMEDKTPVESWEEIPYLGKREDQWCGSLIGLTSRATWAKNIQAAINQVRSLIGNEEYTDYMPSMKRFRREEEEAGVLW

[3] = target: T4, Polyadenylate-binding protein 1 (Homo sapiens, UniProt P11940); test: MLLE binding blockers, Cy5 peptide tracer – biochemical, fluorescence polarization, Cy5-PAM2 peptide, secondary, miRNA deadenylation inhibitor project, dose response (AID 602260); type: functional; conditions: read-out: IC50_Mean
T4 sequence (P11940 whole entry, the tested form may be a part): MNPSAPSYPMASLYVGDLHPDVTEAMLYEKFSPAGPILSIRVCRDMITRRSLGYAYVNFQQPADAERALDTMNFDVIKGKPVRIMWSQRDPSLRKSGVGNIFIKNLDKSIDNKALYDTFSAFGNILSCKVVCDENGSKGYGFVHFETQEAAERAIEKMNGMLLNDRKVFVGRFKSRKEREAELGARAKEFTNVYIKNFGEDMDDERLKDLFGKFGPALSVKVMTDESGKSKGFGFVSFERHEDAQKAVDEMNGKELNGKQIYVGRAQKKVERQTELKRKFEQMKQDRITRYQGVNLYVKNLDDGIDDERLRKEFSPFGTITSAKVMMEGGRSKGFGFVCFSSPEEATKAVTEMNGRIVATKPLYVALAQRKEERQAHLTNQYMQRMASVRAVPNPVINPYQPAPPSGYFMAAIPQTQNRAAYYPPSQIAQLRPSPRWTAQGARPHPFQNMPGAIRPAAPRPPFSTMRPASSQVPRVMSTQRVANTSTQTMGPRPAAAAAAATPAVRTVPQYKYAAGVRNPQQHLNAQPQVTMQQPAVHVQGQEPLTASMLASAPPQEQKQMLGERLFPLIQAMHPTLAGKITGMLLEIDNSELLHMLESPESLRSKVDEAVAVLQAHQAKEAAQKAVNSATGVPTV

[4] = target: T4, Polyadenylate-binding protein 1; test: MLLE domain peptide-binding blockers, IC50 – biochemical, fluorescence polarization, FITC-PAM2 peptide, dose response (AID 602259); type: functional; conditions: read-out: IC50_Mean
[5] = decrease of insulin promoter-GFP reporter – imaging, high-content screening, mouse beta cells (AID 1628); type: functional; conditions: MIN6
[6] = MIN6 cell viability loss – mouse insulinoma, cytotoxicity control, dose response (AID 2122); type: functional;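 further: confirmatory high-throughput counterscreen run to flag cytotoxic compounds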
[7] = target: T5, Voltage-gated N-type calcium channel alpha-1B subunit/Amyloid beta A4 precursor protein-binding family A member 1 (Homo sapiens, UniProt Q00975+Q02410); type: protein assay
T5 sequence (Q00975 whole entry): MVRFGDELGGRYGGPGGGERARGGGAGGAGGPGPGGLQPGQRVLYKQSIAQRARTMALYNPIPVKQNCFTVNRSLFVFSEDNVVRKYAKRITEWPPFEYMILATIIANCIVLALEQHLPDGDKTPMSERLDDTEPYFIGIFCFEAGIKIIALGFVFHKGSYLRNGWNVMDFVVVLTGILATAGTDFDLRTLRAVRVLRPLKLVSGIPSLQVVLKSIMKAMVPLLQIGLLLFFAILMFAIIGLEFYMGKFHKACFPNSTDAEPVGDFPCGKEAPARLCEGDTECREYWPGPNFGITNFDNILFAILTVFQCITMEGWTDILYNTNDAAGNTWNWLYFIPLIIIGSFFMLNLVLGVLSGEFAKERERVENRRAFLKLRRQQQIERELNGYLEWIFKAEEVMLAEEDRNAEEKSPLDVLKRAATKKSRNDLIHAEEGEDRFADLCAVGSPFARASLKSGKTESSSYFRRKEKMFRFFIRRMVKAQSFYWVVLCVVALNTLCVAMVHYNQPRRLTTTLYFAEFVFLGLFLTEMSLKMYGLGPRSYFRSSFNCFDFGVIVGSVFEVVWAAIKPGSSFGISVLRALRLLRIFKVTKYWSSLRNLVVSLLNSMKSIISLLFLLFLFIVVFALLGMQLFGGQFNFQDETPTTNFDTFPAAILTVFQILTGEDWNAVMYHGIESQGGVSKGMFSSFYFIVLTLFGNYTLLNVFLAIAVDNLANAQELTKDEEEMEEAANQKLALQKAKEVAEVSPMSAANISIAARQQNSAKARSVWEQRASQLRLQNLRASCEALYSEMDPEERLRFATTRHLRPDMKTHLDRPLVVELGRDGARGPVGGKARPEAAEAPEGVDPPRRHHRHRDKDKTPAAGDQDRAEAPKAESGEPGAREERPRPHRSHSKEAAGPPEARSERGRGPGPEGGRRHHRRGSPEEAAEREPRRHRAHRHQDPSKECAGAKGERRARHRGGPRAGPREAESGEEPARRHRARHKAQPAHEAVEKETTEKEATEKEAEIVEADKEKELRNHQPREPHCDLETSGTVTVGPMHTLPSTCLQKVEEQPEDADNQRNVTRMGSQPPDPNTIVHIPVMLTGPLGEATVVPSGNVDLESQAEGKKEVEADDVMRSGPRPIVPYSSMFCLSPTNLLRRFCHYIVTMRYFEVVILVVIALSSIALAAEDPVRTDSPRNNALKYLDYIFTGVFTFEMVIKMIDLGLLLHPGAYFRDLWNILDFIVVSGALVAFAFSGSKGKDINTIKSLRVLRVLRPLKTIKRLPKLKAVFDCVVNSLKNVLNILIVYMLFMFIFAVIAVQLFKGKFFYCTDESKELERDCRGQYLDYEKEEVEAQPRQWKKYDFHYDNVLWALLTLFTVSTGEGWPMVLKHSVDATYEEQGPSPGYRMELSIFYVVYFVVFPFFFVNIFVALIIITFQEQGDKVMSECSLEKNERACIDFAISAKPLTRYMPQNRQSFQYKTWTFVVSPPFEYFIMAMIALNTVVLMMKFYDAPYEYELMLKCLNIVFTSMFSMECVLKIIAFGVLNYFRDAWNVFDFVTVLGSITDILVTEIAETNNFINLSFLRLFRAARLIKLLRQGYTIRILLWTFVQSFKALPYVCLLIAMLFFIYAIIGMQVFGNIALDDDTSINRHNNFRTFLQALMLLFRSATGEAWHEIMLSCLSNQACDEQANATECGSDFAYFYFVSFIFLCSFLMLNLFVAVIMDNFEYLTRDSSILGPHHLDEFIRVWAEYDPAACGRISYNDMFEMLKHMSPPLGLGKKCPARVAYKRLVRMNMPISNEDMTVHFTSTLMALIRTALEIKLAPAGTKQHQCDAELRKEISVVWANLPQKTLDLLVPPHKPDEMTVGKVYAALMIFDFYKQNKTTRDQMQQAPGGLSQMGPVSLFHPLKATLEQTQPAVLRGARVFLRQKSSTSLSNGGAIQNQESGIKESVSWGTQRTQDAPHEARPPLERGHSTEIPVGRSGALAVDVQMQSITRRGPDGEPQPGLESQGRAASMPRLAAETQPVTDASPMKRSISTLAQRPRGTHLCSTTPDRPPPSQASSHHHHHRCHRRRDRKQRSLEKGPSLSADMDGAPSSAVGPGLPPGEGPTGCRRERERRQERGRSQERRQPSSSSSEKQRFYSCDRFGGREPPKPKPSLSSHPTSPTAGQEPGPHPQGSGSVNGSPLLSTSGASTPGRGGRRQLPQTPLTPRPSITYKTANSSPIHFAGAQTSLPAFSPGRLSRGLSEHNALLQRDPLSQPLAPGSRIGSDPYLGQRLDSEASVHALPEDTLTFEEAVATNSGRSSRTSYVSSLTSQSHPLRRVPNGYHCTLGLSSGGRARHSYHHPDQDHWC
T5 sequence (Q02410 whole entry): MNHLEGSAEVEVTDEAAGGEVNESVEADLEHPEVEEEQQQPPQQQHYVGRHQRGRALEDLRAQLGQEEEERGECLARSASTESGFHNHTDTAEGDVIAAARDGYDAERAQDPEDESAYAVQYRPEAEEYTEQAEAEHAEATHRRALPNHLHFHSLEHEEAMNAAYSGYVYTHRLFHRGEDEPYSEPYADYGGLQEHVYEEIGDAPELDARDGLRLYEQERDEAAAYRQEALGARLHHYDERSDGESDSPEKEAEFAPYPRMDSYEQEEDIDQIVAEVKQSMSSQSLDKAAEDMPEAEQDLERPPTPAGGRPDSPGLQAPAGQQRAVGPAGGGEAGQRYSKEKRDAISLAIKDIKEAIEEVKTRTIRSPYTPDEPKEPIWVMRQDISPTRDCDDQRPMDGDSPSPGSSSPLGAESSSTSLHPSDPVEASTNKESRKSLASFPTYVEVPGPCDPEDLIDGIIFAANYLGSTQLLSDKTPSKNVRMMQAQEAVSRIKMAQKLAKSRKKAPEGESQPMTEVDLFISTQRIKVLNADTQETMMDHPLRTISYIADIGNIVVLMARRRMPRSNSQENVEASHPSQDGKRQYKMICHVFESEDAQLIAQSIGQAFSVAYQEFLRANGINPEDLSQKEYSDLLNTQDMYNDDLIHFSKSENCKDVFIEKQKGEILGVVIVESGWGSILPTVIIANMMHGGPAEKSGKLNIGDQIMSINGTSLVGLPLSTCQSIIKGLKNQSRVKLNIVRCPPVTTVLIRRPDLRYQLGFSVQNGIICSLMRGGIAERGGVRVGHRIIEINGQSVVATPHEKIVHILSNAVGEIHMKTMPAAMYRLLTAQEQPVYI

[8] = target: T5, Voltage-gated N-type calcium channel alpha-1B subunit/Amyloid beta A4 precursor protein-binding family A member 1; type: protein assay; remark: listed apart in the source
Cytochrome P450 2C19 = Cytochrome P450 2C19 (Homo sapiens, UniProt P33261); test: Cytochrome panel assay with activity outcomes. Panel member name: p450-cyp2c19 Compounds with AC50 equal or less than 10 uM are considered active; type: functional; conditions: read-out: AC50
Cytochrome P450 2C9 = Cytochrome P450 2C9 (Homo sapiens, UniProt P11712)
[9] = target: T6, RNA-binding protein pos-1 (Caenorhabditis elegans, UniProt G5EF15); test: disruptors of C. elegans POS-1 RNA interaction – biochemical, fluorescence polarization, dose response (AID 1964);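 further: purified POS-1 fused to maltose binding protein made in E. coli; potency of compounds blocking POS-1 binding to fluorescent RNA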
T6 sequence (G5EF15 whole entry): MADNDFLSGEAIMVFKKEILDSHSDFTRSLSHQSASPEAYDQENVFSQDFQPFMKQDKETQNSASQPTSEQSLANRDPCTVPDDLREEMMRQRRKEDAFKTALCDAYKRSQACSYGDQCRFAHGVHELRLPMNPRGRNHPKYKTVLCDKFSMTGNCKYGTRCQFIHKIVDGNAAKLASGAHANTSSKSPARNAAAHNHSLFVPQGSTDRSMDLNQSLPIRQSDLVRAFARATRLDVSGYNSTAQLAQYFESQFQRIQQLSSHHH

[10] = target: T7, Zinc finger protein mex-5 (Caenorhabditis elegans, UniProt Q9XUB2); test: potency of MEX-5 RNA-binding blockers – biochemical, C. elegans, fluorescence polarization, dose response (AID 1960)
T7 sequence (Q9XUB2 whole entry): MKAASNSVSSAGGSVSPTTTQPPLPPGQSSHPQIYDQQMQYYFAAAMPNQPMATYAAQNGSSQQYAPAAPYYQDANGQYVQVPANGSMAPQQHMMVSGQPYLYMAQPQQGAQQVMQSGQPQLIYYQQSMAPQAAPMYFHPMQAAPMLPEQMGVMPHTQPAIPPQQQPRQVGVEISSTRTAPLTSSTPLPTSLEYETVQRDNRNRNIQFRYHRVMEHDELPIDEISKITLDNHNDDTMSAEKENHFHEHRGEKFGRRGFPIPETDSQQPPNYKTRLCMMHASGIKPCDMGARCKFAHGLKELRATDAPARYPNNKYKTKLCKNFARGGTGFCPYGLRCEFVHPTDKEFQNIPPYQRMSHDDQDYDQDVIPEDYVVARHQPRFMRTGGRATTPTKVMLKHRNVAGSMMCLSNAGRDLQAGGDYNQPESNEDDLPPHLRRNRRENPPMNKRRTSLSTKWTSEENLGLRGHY

[11] = target: T8, Rac GTPase-activating protein 1 (Homo sapiens, UniProt Q9H0H5); test: blockers of MgcRacGAP-driven Rac1 GTP hydrolysis – biochemical, ADP Hunter fluorescence, primary and confirmatory, confirmation (AID 624330); type: functional
T8 sequence (Q9H0H5 whole entry): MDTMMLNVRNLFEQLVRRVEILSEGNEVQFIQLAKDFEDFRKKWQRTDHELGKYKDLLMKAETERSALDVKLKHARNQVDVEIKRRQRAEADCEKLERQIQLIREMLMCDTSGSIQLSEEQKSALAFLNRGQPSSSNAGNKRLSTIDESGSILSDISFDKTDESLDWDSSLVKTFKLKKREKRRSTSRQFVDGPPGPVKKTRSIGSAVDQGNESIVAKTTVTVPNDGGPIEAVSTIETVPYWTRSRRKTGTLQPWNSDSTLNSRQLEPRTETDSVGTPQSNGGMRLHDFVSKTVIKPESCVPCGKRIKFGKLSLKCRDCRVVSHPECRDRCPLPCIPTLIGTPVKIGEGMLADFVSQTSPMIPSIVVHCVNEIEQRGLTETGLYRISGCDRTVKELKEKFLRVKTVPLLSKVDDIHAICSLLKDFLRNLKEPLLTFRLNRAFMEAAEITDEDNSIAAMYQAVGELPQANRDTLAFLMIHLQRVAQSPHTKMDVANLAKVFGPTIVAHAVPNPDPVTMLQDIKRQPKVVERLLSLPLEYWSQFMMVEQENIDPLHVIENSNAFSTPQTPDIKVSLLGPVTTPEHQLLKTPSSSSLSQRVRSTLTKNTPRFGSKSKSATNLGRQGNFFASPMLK

[12] = Luminescence Cell-Based Dose Retest to Confirm Inhibitors of Cancer Stem Cells. [Related pubchem assays (depositor defined):AID2717, AID2721]; type: functional; conditions: Homo sapiens

CCc1ccc(OC(C)C(=O)Nc2ccc(S(=O)(=O)Nc3nccs3)cc2)cc1 (centres undefined)
IC50 [1]: 13.8 µM (active)

O=C(CCl)Nc1cccc(S(=O)(=O)NC2=NCCCCC2)c1
AC50 [2]: 7.85 µM (active)

CCOC(=O)C1=C(C)N=c2s/c(=C/c3cccc([N+](=O)[O-])c3O)c(=O)n2C1c1cc(OC)c(OC)c(OC)c1 (centres undefined)
IC50 [1]: 13.2 µM (active)

COc1cc(/C=C2/SC(NS(=O)(=O)c3ccccc3)=NC2=O)c([N+](=O)[O-])cc1OC
IC50 (Aminopeptidase N): 24.1 µM (active)
IC50 (Genome polyprotein): 45.8 µM (active)
IC50 [3]: > 66 µM (inactive)
IC50 [4]: > 66 µM (inactive)

CC1(C)CC(N2CCCC2)=CC(=[N+]2CCCCC2)C1
IC50 [5]: < 0.25 µM (active)
IC50 [6]: < 0.25 µM (active)

COc1ccc(CC(=O)Nc2ccc(-c3nnc(-c4ccccc4)o3)cc2)cc1
IC50 [7]: 8.88 µM (active)
IC50 [8]: > 50 µM (inactive)
AC50 (Cytochrome P450 2C19): 1.26 µM (inconclusive)
AC50 (Cytochrome P450 2C9): 0.224 µM (inconclusive)

CSc1nc(S)c2[nH]c(S)nc2n1
EC50 [9]: 5.15 µM (active)
EC50 [10]: 4.78 µM (active)
IC50 (Genome polyprotein): 30.6 µM (active)
IC50 [11]: 32.7 µM (active)

Cc1ccc(N2C(=O)NC(=O)/C(=C/C=C/c3ccco3)C2=O)cc1
AC50 [12]: 1.65 µM (active)
AC50 [2]: 5.97 µM (active)
